Data published in article PMC6879718, “Mycobacterial OtsA Structures Unveil Substrate Preference Mechanism and Allosteric Regulation by 2-Oxoglutarate and 2-Phosphoglycerate” (mBio, 2019).

Assays:
[1] = target: T1, M. thermoresistibile OtsA V363F (Mycolicibacterium thermoresistibile, UniProt G7CGT2, V363F); assay: OtsA kinetic parameters, continuous colorimetric coupled assay (V363F); format: biochemical, Mycobacterium thermoresistibile
T1 sequence (G7CGT2 1-486 V363F): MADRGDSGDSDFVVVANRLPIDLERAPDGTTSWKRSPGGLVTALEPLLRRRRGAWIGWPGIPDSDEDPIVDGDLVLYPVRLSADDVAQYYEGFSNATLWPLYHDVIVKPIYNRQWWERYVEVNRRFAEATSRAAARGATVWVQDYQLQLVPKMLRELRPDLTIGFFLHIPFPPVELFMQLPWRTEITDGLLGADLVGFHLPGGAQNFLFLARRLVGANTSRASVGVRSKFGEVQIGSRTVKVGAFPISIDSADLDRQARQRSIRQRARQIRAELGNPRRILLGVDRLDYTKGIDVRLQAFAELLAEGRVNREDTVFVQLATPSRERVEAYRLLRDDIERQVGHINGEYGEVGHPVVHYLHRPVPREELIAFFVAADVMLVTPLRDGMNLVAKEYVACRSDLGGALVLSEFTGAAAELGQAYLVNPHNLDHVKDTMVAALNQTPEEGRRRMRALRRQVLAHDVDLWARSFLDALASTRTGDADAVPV

MtrOtsA [2] = target: T2, MtrOtsA (Mycolicibacterium thermoresistibile, UniProt G7CGT2); settings: ITC, 25°C, 60 μM OtsA, 1 mM ligand
T2 sequence (G7CGT2 1-486): T1 sequence (G7CGT2 1-486 V363F)

[3] = target: M. thermoresistibile OtsA wild type (Mycolicibacterium thermoresistibile, UniProt G7CGT2); assay: OtsA kinetic parameters, continuous colorimetric coupled assay (wild type); format: biochemical, Mycobacterium thermoresistibile
[4] = target: T3, M. thermoresistibile OtsA L319I, V363F, E367L (Mycolicibacterium thermoresistibile, UniProt G7CGT2, E367L/L319I/V363F); assay: OtsA kinetic parameters, continuous colorimetric coupled assay (L319I, V363F, E367L); format: biochemical, Mycobacterium thermoresistibile; settings: triple mutant
T3 sequence (G7CGT2 1-486 L319I/V363F/E367L): T1 sequence (G7CGT2 1-486 V363F)

[5] = target: T4, M. thermoresistibile OtsA L319I (Mycolicibacterium thermoresistibile, UniProt G7CGT2, L319I); assay: OtsA kinetic parameters, continuous colorimetric coupled assay (L319I); format: biochemical, Mycobacterium thermoresistibile
T4 sequence (G7CGT2 1-486 L319I): T1 sequence (G7CGT2 1-486 V363F)

MtrOtsA [6] = target: T2, MtrOtsA; assay: biochemical
[7] = target: Mycobacterium thermoresistibile OtsA (Mycobacterium thermoresistibile (DSM 44167)); assay: not stated; in solution; the paper does not tell by which method the tetramer was seen
[8] = target: Mycobacterium thermoresistibile OtsA (Mycobacterium thermoresistibile (DSM 44167)); assay: crystal structure; apo form in space group I4(1)22, ADP-G6P ternary complex in P6(2)22, one protomer per asymmetric unit each; sitting-drop vapor diffusion at 18°C

Compound: Nc1nc2c(ncn2[C@@H]2O[C@H](COP(=O)(O)OP(=O)(O)O[C@H]3O[C@H](CO)[C@@H](O)[C@H](O)[C@H]3O)[C@@H](O)[C@H]2O)c(=O)[nH]1 [GDP-glucose]
- fold increase in Km^app over the wild type [1]: ~2.5 fold
- heat of binding (MtrOtsA [2]): no observable heat of binding
- turnover, fold lower than ADP-glucose [3]: 5 fold

Compound: Nc1ncnc2c1ncn2[C@@H]1O[C@H](COP(=O)(O)OP(=O)(O)O[C@H]2O[C@H](CO)[C@@H](O)[C@H](O)[C@H]2O)[C@@H](O)[C@H]1O [ADP-glucose]
- fold increase in Km^app compared to the wild type [4]: ~5 fold
- fold increase in Km^app compared to the wild type [5]: ~3 fold
- fold increase in Km^app over the wild type [1]: ~2.5 fold
- Kd (MtrOtsA [6]): 27.2 ± 2.66 µM

Compound: Mycobacterium thermoresistibile OtsA (enzyme)
- stoichiometry N [7]: 4
- stoichiometry N [8]: 4

Compound: O=C[C@H](O)[C@@H](O)[C@H](O)[C@H](O)COP(=O)(O)O [Glucose-6-phosphate, glucose-6-phosphate]
- use as acceptor substrate ([3]; ADP-glucose as the donor substrate): the only acceptor
